Positions of bridges follow the written chain, without caps; N, C: chain ends. Non-standard residues stand in square brackets, D forms with d. Residues, ends and D or L forms follow the SMILES beside them. *: point of attachment. X1 = CC(O)[C@H](CO)N*
Target: Somatostatin receptor type 4 (Rattus norvegicus, UniProt P30937)
Sequence (P30937 whole entry): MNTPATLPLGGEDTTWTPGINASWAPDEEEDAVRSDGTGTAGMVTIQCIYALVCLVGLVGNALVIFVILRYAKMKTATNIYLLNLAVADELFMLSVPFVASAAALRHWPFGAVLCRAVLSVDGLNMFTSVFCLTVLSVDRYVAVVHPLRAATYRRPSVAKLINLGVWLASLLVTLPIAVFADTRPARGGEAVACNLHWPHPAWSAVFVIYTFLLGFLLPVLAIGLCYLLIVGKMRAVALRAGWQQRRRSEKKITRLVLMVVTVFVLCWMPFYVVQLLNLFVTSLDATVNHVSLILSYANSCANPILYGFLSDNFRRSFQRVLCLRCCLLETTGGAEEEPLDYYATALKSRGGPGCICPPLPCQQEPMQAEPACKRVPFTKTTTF

Row | SMILES | Ki [nM]
1 | CSCC[C@H](NC(=O)[C@H](C)NC(=O)[C@@H]1CCCN1C(=O)[C@H](CC(N)=O)NC(=O)[C@H](CO)NC(=O)[C@H](CC(N)=O)NC(=O)[C@H](C)NC(=O)[C@@H](N)CO)C(=O)N[C@@H](C)C(=O)N1CCC[C@H]1C(=O)N[C@@H](CCCNC(=N)N)C(=O)N[C@@H](CCC(=O)O)C(=O)N[C@@H](CCCNC(=N)N)C(=O)N[C@@H](CCCCN)C(=O)N[C@@H](C)C(=O)NCC(=O)N[C@H]1CSSC[C@@H](C(=O)O)NC(=O)[C@H](CO)NC(=O)[C@H]([C@@H](C)O)NC(=O)[C@H](Cc2ccccc2)NC(=O)[C@H]([C@@H](C)O)NC(=O)[C@H](CCCCN)NC(=O)[C@H](Cc2c[nH]c3ccccc23)NC(=O)[C@H](Cc2ccccc2)NC(=O)[C@H](Cc2ccccc2)NC(=O)[C@H](CC(N)=O)NC(=O)[C@H](CCCCN)NC1=O [somatostatin-28] | 0.08
2 | CC(O)[C@H](CO)NC(=O)[C@@H]1CSSC[C@H](NC(=O)[C@H](N)Cc2ccccc2)C(=O)N[C@@H](Cc2ccccc2)C(=O)N[C@H](Cc2c[nH]c3ccccc23)C(=O)N[C@@H](CCCCN)C(=O)N[C@@H]([C@@H](C)O)C(=O)N1 (some centres not stated) (H-[dF]CF[dW]KTC-X1; disulfide 2-7) | 0.18
